Publication PMC9233675, “Ru(II) photocages enable precise control over enzyme activity with red light” (Nature Communications, 2022)
Substitutions are numbered along the chain they refer to.

Legend:
CYP1B1 S127A = molecular target: T1, CYP1B1 S127A (Homo sapiens, UniProt Q16678, S127A)
T1 sequence (Q16678 1-543 S127A): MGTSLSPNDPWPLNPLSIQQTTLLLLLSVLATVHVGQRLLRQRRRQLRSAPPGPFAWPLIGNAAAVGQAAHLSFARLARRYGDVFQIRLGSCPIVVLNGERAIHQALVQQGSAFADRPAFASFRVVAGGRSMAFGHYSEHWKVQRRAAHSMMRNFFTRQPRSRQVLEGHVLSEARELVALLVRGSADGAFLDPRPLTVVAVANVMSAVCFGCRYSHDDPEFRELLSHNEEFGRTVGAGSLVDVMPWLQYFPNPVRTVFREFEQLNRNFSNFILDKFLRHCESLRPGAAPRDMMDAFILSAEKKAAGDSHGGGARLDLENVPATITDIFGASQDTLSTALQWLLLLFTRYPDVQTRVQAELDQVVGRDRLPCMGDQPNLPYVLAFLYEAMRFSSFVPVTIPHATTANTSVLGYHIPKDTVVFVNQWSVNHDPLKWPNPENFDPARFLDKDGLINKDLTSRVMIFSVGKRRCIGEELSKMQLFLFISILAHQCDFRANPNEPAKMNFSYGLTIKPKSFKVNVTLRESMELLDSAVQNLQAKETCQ
Source text: (§1) Site directed mutagenesis was used to probe the importance of specific active-site contacts identified through the structural assessment (Fig. 3a, b) and simulations. In all cases, conservative mutations were made to maintain polar or hydrophobic character and approximate size. The aromatic residues that frame the inhibitor binding site, Phe143 and Phe231, were mutated to Leu to determine the importance of the π interactions. In addition, the Ser127 residue, located in the upper corner of the active site on the B-C loop, was chosen for mutation based on the simulations. This amino acid transiently contacts the inhibitors, but also forms a hydrogen bond with Asp326 of the I-helix, and thus may impact the position of this helix with regards to the B-C loop. […] Rather than directly mutating these residues in the I-helix, neighboring residues Gln332 and Asp333 were targeted, with the hope of interrupting amino acid interactions that position the helix within the active site.
(§2) The ratio of IC50 values for the WT vs. the mutant are shown in Fig. 3c and reflects the importance of the specific contact; the log of the value is used to aid in visualization.
(§3) Cell lines were seeded onto Geltrex coated 96-well plates at 40,000 cells/well, and grown overnight in DMEM media containing 1 μg/mL tetracycline. The media was then replaced with Opti-MEM supplemented with 2% FBS and 1 μg/mL tetracycline. Compounds were serially diluted in Opti-MEM supplemented with 2% FBS and 1 μg/mL tetracycline and an equal volume of compound added to the cells (n = 3). Following a 1 h incubation, resorufin ethyl ether (REE; for CYP1B1 and 1A1) or dibenzylfluorescein (DBF; for 19A1) was added to the cells for a total concentration of 5 μM for REE and 1 μM for DBF. […] Dose–response curves were generated in Prism and normalized using the no-compound control (set as 100% activity) and the no-cell control (set as 0% activity; this value in the raw data reflects the background fluorescence of the dye alone).

CYP1B1 F134L = molecular target: T2, CYP1B1 F134L (Homo sapiens, UniProt Q16678, F134L)
T2 sequence (Q16678 1-543 F134L): T1 sequence (Q16678 1-543 S127A) with A127S, F134L
Source text: as §1, §2, §3

CYP1B1 S269A = molecular target: T3, CYP1B1 S269A (Homo sapiens, UniProt Q16678, S269A)
T3 sequence (Q16678 1-543 S269A): T1 sequence (Q16678 1-543 S127A) with A127S, S269A
Source text: as §1, §2, §3

CYP1B1 Q332E = molecular target: T4, CYP1B1 Q332E (Homo sapiens, UniProt Q16678, Q332E)
T4 sequence (Q16678 1-543 Q332E): T1 sequence (Q16678 1-543 S127A) with A127S, Q332E
Source text: as §1, §2, §3

CYP1B1 D333N = molecular target: T5, CYP1B1 D333N (Homo sapiens, UniProt Q16678, D333N)
T5 sequence (Q16678 1-543 D333N): T1 sequence (Q16678 1-543 S127A) with A127S, D333N
Source text: as §1, §2, §3

`O=c1cc(-c2ccccc2)oc2c1ccc1ccccc12` [ANF, α-naphthoflavone] was tested, and the “logSI S127A” value (CYP1B1 S127A) was -1.15, the “logSI F134L” value (CYP1B1 F134L) was -0.301 and the “logSI S269A” value (CYP1B1 S269A) was 0. The “logSI Q332E” value (CYP1B1 Q332E) was 0.906 and the “logSI D333N” value (CYP1B1 D333N) was 1.497.
